Calls of active or inactive are those of the source. The rule behind the calls is not given here.
Experiments:
Homo sapiens [1] = species on record: Homo sapiens; assay: Inhibition of telomerase extension activity at 50 uM by PCR based TRAP assay
[2] = Cell cycle arrest in […] cells assessed as accumulation at Sub G1 phase at 75 uM; type: functional, cell-based; settings: Homo sapiens
[3] = Cytotoxicity against […] cells by MTT assay; type: functional, cell-based; settings: Homo sapiens
[4] = Cell cycle arrest in […] cells assessed as accumulation at G1 phase at 75 uM; type: functional, cell-based; settings: Homo sapiens
[5] = Cell cycle arrest in […] cells assessed as accumulation at S phase at 75 uM; type: functional, cell-based; settings: Homo sapiens
[6] = Cell cycle arrest in […] cells assessed as accumulation at G2/M phase at 75 uM; type: functional, cell-based; settings: Homo sapiens
[7] = Cell cycle arrest in […] cells assessed as accumulation at Sub G1 phase at 300 uM; type: functional, cell-based; settings: Homo sapiens
[8] = Cell cycle arrest in […] cells assessed as accumulation at G1 phase at 300 uM; type: functional, cell-based; settings: Homo sapiens
[9] = Cell cycle arrest in […] cells assessed as accumulation at S phase at 300 uM; type: functional, cell-based; settings: Homo sapiens
[10] = Cell cycle arrest in […] cells assessed as accumulation at G2/M phase at 300 uM; type: functional, cell-based; settings: Homo sapiens
[11] = Binding affinity to human telomeric DNA
Homo sapiens [12] = species on record: Homo sapiens; assay: Stabilization effect on human telomeric DNA assessed as differential melting temperature by FRET assay
Homo sapiens [13] = species on record: Homo sapiens; assay: Stabilization effect on human telomeric DNA assessed as differential melting temperature in the presence of double strand DNA by FRET assay
Homo sapiens [14] = species on record: Homo sapiens; assay: Stabilization effect on human telomeric DNA assessed as differential melting temperature by DSC assay
[15] = Binding affinity to hairpin DNA; set-up: species or system Homo sapiens

| Activity (Homo sapiens [1]) | Kd [11] [µM] | ΔTm (Homo sapiens [12]) [°C] | ΔTm (Homo sapiens [13]) [°C] | ΔTm (Homo sapiens [14]) [°C] | Kd [15] [µM] | Compound | Activity [2] [%] | IC50 [3] [µM] | Activity [4] [%] | Activity [5] [%] | Activity [6] [%] | Activity [7] [%] | Activity [8] [%] | Activity [9] [%] | Activity [10] [%] |
| --- | --- | --- | --- | --- | --- | --- | --- | --- | --- | --- | --- | --- | --- | --- | --- |
| Active | 3.1 | 17 | 17 | 9.2 |  | NCCC(=O)NCC1=C2CNC(=O)C3=CC=C(CNC(=O)c4cc(CNC(=O)CCN)c(o4)CNC(=O)C4=CC=C(CNC(=O)C(=C1)O2)O4)O3 | 46 | 500 | 31.5 | 7 | 11.5 | 48.5 | 41.4 | 4.2 | 4.8 |
|  | 21 | 10 | 7 | 3 | 700 | NCCC(=O)NCc1cc2oc1CNC(=O)C1=CC=C(CNC(=O)C3=CC=C(CNC2=O)O3)O1 |  |  |  |  |  |  |  |  |  |
|  | 29 | 9 | 7 | 2 | 950 | NCc1cc2oc1CNC(=O)C1=CC=C(CNC(=O)C3=CC=C(CNC2=O)O3)O1 |  |  |  |  |  |  |  |  |  |
| Active | 14.5 | 12 | 12 | 6.6 |  | NCC1=C2CNC(=O)C3=CC=C(CNC(=O)c4cc(CN)c(o4)CNC(=O)C4=CC=C(CNC(=O)C(=C1)O2)O4)O3 | 47 | 500 | 23.5 | 8.8 | 18.8 | 49 | 39 | 4.8 | 5.5 |
